Reference: US5567738A, “Use of 2-(4-(4-chlorophenyl)cyclohexyl)-3-hydroxy-1,4-Naphthoquinone for the treatment of cancer” (Glaxo Wellcome Inc., priority 1992, dated 1996)

Columns and labels:
Format in all cases: cell-based
[1] = system: P3888D1 (Mouse Leukaemia); experiment: Proliferative assay against tumour cell line P3888D1 in vitro; details: read-out: Activity (% Growth Inhibition)
Description: (§1) Activity Against Tumour Cell Lines In Vitro The activity of the test compound was evaluated using proliferative assays against a number of different turnout cell lines in vitro.

[2] = system: HT1080SCC2; experiment: Activity against human fibrosarcoma cells in vitro, HT1080SCC2
Description: (§2) Activity Against Human Fibrosarcoma Cells In Vitro The activities of the test compound and of a soluble carbamate derivative thereof against two cell lines derived from human fibrosarcoma cells were measured.

[3] = system: HT10801C; experiment: Activity against human fibrosarcoma cells in vitro, HT10801C
Description: as §2

[4] = system: HCT-116 (Human colon carcinoma); experiment: Proliferative assay against tumour cell line HCT-116 in vitro; details: read-out: Activity (% Growth Inhibition)
Description: as §1

[5] = system: tumour cell lines; experiment: Activity against tumour cell lines in vitro, all cell lines tested (proliferative assays); details: at 1001 μM concentration (so in the source)
Description: as §1

[6] = system: WiDr (Human colon adenocarcinoma); experiment: Proliferative assay against tumour cell line WiDr in vitro; details: read-out: Activity (% Growth Inhibition)
Description: as §1

[7] = system: two cell lines derived from human fibrosarcoma cells; experiment: Activity against two cell lines derived from human fibrosarcoma cells in vitro; details: both cell lines
Description: as §2

[8] = system: A549 (Human lung carcinoma); experiment: Proliferative assay against tumour cell line A549 in vitro; details: read-out: Activity (% Growth Inhibition)
Description: as §1

[9] = system: DLD-1 (Human colon adenocarcinoma); experiment: Proliferative assay against tumour cell line DLD-1 in vitro; details: read-out: Activity (% Growth Inhibition)
Description: as §1

[10] = system: carcinoma, adenocarcinoma and fibrosarcoma cells; experiment: Activity against tumour cells (general statement)

IC50 [2]	IC50 [3]	SMILES	inhibition at 100 µM [1]	inhibition at 100 µM [4]	active against all the cell lines tested [5]	inhibition at 100 µM [6]	activity against human fibrosarcoma cell lines [7]	inhibition at 100 µM [8]	inhibition at 100 µM [9]	activity against tumour cells [10]
11 µM	15 µM	O=C1C(O)=C([C@H]2CC[C@H](c3ccc(Cl)cc3)CC2)C(=O)c2ccccc21 [Test Compound, 2-[trans-4-(4-chlorophenyl)cyclohexyl]-3-hydroxy-1,4-naphthoquinone]	92.3%	93.8%	active	79.4%	active	86.6%	94.2%	–
–	–	O=C1C(O)=C(C2CCC(c3ccc(Cl)cc3)CC2)C(=O)c2ccccc21 (stereo not shown) [compound of formula (II), 2-[4-(4-chlorophenyl)cyclohexyl]-3-hydroxy-1,4-naphthoquinone]	–	–	–	–	–	–	–	exhibits activity against tumour cells
